Measurements as given in PMC6271638, “Synthesis of New 1,2,3-Triazol-4-yl-quinazoline Nucleoside and Acyclonucleoside Analogues” (Molecules, 2014).
Read-outs that look alike come from different tables or passages of the source.

Tests used:
Huh 5.2 cells = test: Cytotoxicity (50% extinction of cells) in the anti-HCV replicon assay; assay type: cell-based; conditions: 3-day cell culture assay, read-out: CC50, concentration of compound required for 50% extinction of Huh 5.2 cells
[1] = tested on: HCV replicon (genotype 1b, CON1); test: Anti-HCV activity, 3-day cell culture assay in HCV-replicon-containing cell line AVA5; assay type: cell-based, hepatitis C virus; conditions: AVA5 cells (genotype 1b, CON1), 3-day assay, read-out: IC50, concentration of compound achieving 50% inhibition of the replicon system
Method: Antiviral activity was assessed in a 3-day cell culture assay using the HCV-replicon-containing cell line, AVA5 (genotype 1b, CON1) (provided to GUMC by Apath, Inc., Brooklyn, NY, USA) as previously described.

[2] = Cytotoxicity (50% extinction of cells) in the anti-HCV replicon assay; assay type: cell-based; conditions: human; Huh 5.2 cells; 3-day cell culture assay; read-out: CC50, concentration of compound required for 50% extinction of Huh 5.2 cells

Row | Compound | CC50 (Huh 5.2 cells) [µM] | IC50 [1] [µM] | CC50 at 3 day [2] [µM] | IC50 ([1]; Hepatitis C virus, 72 h) [µM]
1 | 3-((1-(β-D-Ribofuranos-1-yl)-1,2,3-triazol-4-yl)methyl)-2-methylquinazolin-4-one [Compound 7d] | ≥ 100 | > 10 | – | –
2 | 3-((1-(β-D-Ribofuranos-1-yl)-1,2,3-triazol-4-yl)methyl)quinazolin-4-one [Compound 7g] | ≥ 100 | > 10 | – | –
3 | 4-((1-(β-D-Ribofuranos-1-yl)-1,2,3-triazol-4-yl)methoxy)-2-phenylquinazoline [Compound 7a] | ≥ 50 | > 10 | – | –
4 | C[C@@]1(O)[C@H](O)[C@@H](CO)O[C@H]1n1ccc(N)nc1=O [Compound 2CmeCyt, reference compound] | > 300 | 1.5 | – | –
5 | OCCOCn1cc(COc2nc(-c3ccccc3)nc3ccccc23)nn1 [Compound 7b, 2-((4-((2-Phenylquinazolin-4-yloxy)methyl)-1,2,3-triazol-1-yl)methoxy)etanol] | – | – | ≥ 100 | > 10
6 | OCCCCn1cc(COc2nc(-c3ccccc3)nc3ccccc23)nn1 [Compound 7c, 4-(4-((2-Phenylquinazolin-4-yloxy)methyl)-1,2,3-triazol-1-yl)butan-1-ol] | – | – | ≥ 50 | > 10
7 | Cc1nc2ccccc2c(=O)n1Cc1cn(COCCO)nn1 [Compound 7e, 2-((4-((2-Methyl-4-oxoquinazolin-3-yl)methyl)-1,2,3-triazol-1-yl)methoxy)ethanol] | – | – | ≥ 50 | > 10
8 | Cc1nc2ccccc2c(=O)n1Cc1cn(CCCCO)nn1 [Compound 7f, 4-(4-((2-Methyl-4-oxoquinazolin-3-yl)methyl)-1,2,3-triazol-1-yl)butan-1-ol] | – | – | ≥ 50 | > 10
9 | O=c1c2ccccc2ncn1Cc1cn(COCCO)nn1 [Compound 7h, 2-((4-((4-Oxoquinazolin-3-yl)methyl)-1,2,3-triazol-1-yl)methoxy)ethanol] | – | – | ≥ 50 | > 10
10 | O=c1c2ccccc2ncn1Cc1cn(CCCCO)nn1 [Compound 7i, 4-(4-((4-Oxoquinazolin-3-yl)methyl)-1H-1,2,3-triazol-1-yl)butan-1-ol] | – | – | ≥ 50 | > 10
